Measurements from ChEMBL document CHEMBL4819064, “Discovery of new pyrimidopyrrolizine/indolizine-based derivatives as P-glycoprotein inhibitors: Design, synthesis, cytotoxicity, and MDR reversal activities” (Eur J Med Chem, 2021).

What was measured:
[1] = Inhibition of P-gp in mouse EMT6/AR1.0 cells assessed reduction in tritiated daunomycin efflux incubated for 2 hrs by radioactivity based assay; type: cell-based; conditions: EMT6/AR1, 2 h
[2] = Selectivity index, ratio of IC50 for human MRC5 cells to IC50 for human A2780 cells; type: toxicity; conditions: MRC5 cells versus A2780 cells, read-out: Ratio IC50
A2780 = test: Cytotoxicity against human A2780 cells assessed as reduction in cell viability incubated for 72 hrs by MTT assay; conditions: A2780, 72 h
HT-29 = test: Cytotoxicity against human HT29 cells assessed as reduction in cell viability incubated for 72 hrs by MTT assay; conditions: HT-29, 72 h
MCF7 = test: Cytotoxicity against human MCF7 cells assessed as reduction in cell viability incubated for 72 hrs by MTT assay; type: functional, cell-based; conditions: MCF7, 72 h
MRC5 = test: Cytotoxicity against human MRC5 cells assessed as reduction in cell viability incubated for 72 hrs by MTT assay; conditions: MRC5, 72 h
[3] = Selectivity index, ratio of IC50 for human MRC5 cells to IC50 for human MCF7 cells; type: toxicity; conditions: MRC5 cells versus MCF7 cells, read-out: Ratio IC50
[4] = Selectivity index, ratio of IC50 for human MRC5 cells to IC50 for human HT29 cells; type: toxicity; conditions: MRC5 cells versus HT29 cells, read-out: Ratio IC50
NCI/ADR-RES [5] = test: Synergistic cytotoxicity against human MCF7/ADR cells assessed as combination index at 1 uM after 72 hrs in presence of 0.25 uM doxorubicin by MTT assay; type: functional
NCI/ADR-RES [6] = test: Cytotoxicity against human MCF7/ADR cells assessed as reduction in cell viability incubated for 72 hrs in presence of doxorubicin by MTT assay; type: functional, cell-based
[7] = Reversal of multidrug resistant activity in human MCF7/ADR cells assessed as reversal fold after 72 hrs by MTT assay; type: functional, NCI/ADR-RES
NCI/ADR-RES [8] = test: Synergistic cytotoxicity against human MCF7/ADR cells assessed as combination index at 0.5 uM after 72 hrs in presence of 0.25 uM doxorubicin by MTT assay; type: functional
NCI/ADR-RES [9] = test: Synergistic cytotoxicity against human MCF7/ADR cells assessed as combination index at 0.25 uM after 72 hrs in presence of 0.25 uM doxorubicin by MTT assay; type: functional
NCI/ADR-RES [10] = test: Synergistic cytotoxicity against human MCF7/ADR cells assessed as combination index at 1 uM after 72 hrs in presence of 0.5 uM doxorubicin by MTT assay; type: functional
NCI/ADR-RES [11] = test: Cytotoxicity against human MCF7/ADR cells assessed as reduction in cell viability incubated for 72 hrs by MTT assay
NCI/ADR-RES [12] = test: Synergistic cytotoxicity against human MCF7/ADR cells assessed as combination index at 0.5 uM after 72 hrs in presence of 0.5 uM doxorubicin by MTT assay; type: functional
NCI/ADR-RES [13] = test: Synergistic cytotoxicity against human MCF7/ADR cells assessed as combination index at 0.25 uM after 72 hrs in presence of 0.5 uM doxorubicin by MTT assay; type: functional
NCI/ADR-RES [14] = test: Synergistic cytotoxicity against human MCF7/ADR cells assessed as combination index at 0.5 uM after 72 hrs in presence of 1 uM doxorubicin by MTT assay; type: functional
NCI/ADR-RES [15] = test: Synergistic cytotoxicity against human MCF7/ADR cells assessed as combination index at 1 uM after 72 hrs in presence of 1 uM doxorubicin by MTT assay; type: functional
NCI/ADR-RES [16] = test: Synergistic cytotoxicity against human MCF7/ADR cells assessed as combination index at 0.25 uM after 72 hrs in presence of 1 uM doxorubicin by MTT assay; type: functional
[17] = target: ATP-dependent translocase ABCB1 (Homo sapiens, UniProt P08183); test: Inhibition of P-gp activity in human MCF7/ADR cells after 72 hrs by RT-PCR analysis; type: cell-based; conditions: nci/adr-res, at 125 to 1000 nM, dose 125-1000 nM
Sequence of ATP-dependent translocase ABCB1 (P08183 whole entry): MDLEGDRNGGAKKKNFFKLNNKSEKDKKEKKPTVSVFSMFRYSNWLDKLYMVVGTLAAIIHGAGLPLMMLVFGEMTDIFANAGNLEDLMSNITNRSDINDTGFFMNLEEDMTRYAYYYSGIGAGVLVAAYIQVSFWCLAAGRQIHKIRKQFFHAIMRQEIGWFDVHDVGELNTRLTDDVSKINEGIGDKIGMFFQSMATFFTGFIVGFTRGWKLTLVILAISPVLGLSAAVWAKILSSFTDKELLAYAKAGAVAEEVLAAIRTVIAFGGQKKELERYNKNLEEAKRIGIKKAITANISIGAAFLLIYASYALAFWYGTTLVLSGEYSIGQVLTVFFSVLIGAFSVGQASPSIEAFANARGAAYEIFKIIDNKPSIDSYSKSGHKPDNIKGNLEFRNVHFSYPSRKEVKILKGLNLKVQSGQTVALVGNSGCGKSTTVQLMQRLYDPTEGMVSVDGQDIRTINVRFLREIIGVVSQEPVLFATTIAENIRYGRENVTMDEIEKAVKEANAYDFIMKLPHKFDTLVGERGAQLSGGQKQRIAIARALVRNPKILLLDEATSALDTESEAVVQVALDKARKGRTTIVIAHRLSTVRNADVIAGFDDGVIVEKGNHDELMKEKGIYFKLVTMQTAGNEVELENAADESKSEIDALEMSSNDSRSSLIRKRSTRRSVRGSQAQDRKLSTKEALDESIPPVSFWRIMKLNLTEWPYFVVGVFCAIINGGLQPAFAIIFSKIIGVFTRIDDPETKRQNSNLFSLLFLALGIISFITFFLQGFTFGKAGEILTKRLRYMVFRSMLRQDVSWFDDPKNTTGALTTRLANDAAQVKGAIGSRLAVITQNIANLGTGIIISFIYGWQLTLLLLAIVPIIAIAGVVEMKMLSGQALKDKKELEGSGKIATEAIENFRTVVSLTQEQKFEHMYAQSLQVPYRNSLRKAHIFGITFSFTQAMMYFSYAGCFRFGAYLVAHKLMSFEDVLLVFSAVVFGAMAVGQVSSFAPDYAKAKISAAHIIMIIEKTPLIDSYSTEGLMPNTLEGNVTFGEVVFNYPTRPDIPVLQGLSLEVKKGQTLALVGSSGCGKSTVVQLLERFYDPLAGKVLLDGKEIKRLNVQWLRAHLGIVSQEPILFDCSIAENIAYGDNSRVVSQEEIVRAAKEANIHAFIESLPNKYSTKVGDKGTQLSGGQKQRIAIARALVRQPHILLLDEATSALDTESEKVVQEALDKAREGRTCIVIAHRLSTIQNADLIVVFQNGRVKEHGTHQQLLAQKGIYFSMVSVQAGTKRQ

P-gp (ABCB1) [18] = target: T1, P-gp (ABCB1) (Homo sapiens, UniProt P08183); test: Inhibition of P-gp activity in human MCF7/ADR cells at 500 nM after 72 hrs by RT-PCR analysis relative to control; type: cell-based, NCI/ADR-RES; conditions: MCF7/ADR cells
T1 sequence (P08183 whole entry): as above

P-gp (ABCB1) [19] = target: T1, P-gp (ABCB1); test: Inhibition of P-gp activity in human MCF7/ADR cells at 125 nM after 72 hrs by RT-PCR analysis relative to control; type: cell-based, NCI/ADR-RES
P-gp (ABCB1) [20] = target: T1, P-gp (ABCB1); test: Inhibition of P-gp activity in human MCF7/ADR cells at 1000 nM after 72 hrs by RT-PCR analysis relative to control; type: cell-based, NCI/ADR-RES; conditions: MCF7/ADR cells
P-gp (ABCB1) [21] = target: T1, P-gp (ABCB1); test: Inhibition of P-gp activity in human MCF7/ADR cells at 250 nM after 72 hrs by RT-PCR analysis relative to control; type: cell-based, NCI/ADR-RES; conditions: MCF7/ADR cells

Row | Structure (SMILES) | selectivity ratio [2] | IC50 (A2780) [nM] | IC50 (HT-29) [nM] | IC50 (MCF7) [nM] | IC50 (MRC5) [nM] | selectivity ratio [3] | selectivity ratio [4] | CI (NCI/ADR-RES [5]) | IC50 (NCI/ADR-RES [6]) [nM] | fold change (FC) [7] | CI (NCI/ADR-RES [8]) | CI (NCI/ADR-RES [9]) | CI (NCI/ADR-RES [10]) | IC50 (NCI/ADR-RES [11]) [nM] | CI (NCI/ADR-RES [12]) | CI (NCI/ADR-RES [13]) | CI (NCI/ADR-RES [14]) | CI (NCI/ADR-RES [15]) | CI (NCI/ADR-RES [16]) | also measured
1 | N#Cc1c2n(c3c(SCc4ccc(Cl)cc4)ncnc13)CCCCC2 |  |  |  |  |  |  |  |  |  |  |  |  |  |  |  |  |  |  |  | IC50 [1]: > 50000 nM
2 | N#Cc1c2c(n3c1CCC3)C(=O)N(c1ccc(F)cc1)CC(=O)N2 | 1.51 | 970 | 9710 | 190 | 1460 | 7.68 | 0.15 |  |  |  |  |  |  |  |  |  |  |  |  | 
3 | N#Cc1c2n(c3c(=O)n(-c4ccc(Cl)cc4)cnc13)CCCC2 | 4.29 | 70 | 420 | 250 | 300 | 1.2 | 0.71 | >100 | 6330 | 2.88 | >100 | >100 | >100 | 37300 | >100 | >100 | 0.9 | 0.21 | 0.19 | 
4 | COc1ccc(-n2c(=O)[nH]c3c(C#N)c4n(c3c2=O)CCC4)cc1 | 0.88 | 15600 | 420 | 19600 | 13800 | 0.71 | 33 |  |  |  |  |  |  |  |  |  |  |  |  | 
5 | N#Cc1c2n(c3c(=O)n(-c4ccc(Br)cc4)cnc13)CCCC2 | 792 | 20 | 14200 | 270 | 15800 | 58.6 | 1.12 | >100 | 3070 | 5.93 | >100 | >100 | 1.53 | 20200 | 1.141 | >100 | 0.91 | 0.1 | 0.2 | inhibition (INH) [17]: Dose-Dependent Effect; inhibition at 72 h, 0.5 µM (P-gp (ABCB1) [18]): 87%; inhibition at 72 h, 0.125 µM (P-gp (ABCB1) [19]): 5%; inhibition at 72 h, 1 µM (P-gp (ABCB1) [20]): 90%; inhibition at 72 h, 0.25 µM (P-gp (ABCB1) [21]): 63%
6 | O=C(Nc1ccc(F)cc1)c1c2nc[nH]c(=O)c2c2n1CCC2 | 0.29 | 580 | 1020 | 740 | 170 | 0.23 | 0.17 |  |  |  |  |  |  |  |  |  |  |  |  | 
7 | Cc1nc2c(C#N)c3n(c2c(=O)n1-c1ccc(Cl)cc1)CCCC3 | 2.44 | 630 | 10500 | 10800 | 1540 | 0.14 | 0.15 |  |  |  |  |  |  |  |  |  |  |  |  | 
8 | Cc1nc2c(C#N)c3n(c2c(=O)n1-c1ccc(F)cc1)CCC3 | 18.5 | 150 | 780 | 170 | 2780 | 16.4 | 3.56 | >100 | 6120 | 2.98 | >100 | >100 | 9.602 | 46900 | >100 | >100 | 0.2 | 0.1 | 0.89 | 
9 | N#Cc1c2n(c3c(=O)n(-c4ccc(F)cc4)cnc13)CCC2 | 15.6 | 720 | 480 | 650 | 11200 | 17.3 | 23.4 | >100 | 2210 | 8.24 | >100 | >100 | 2.647 | 10300 | 1.089 | 14.6 | 0.12 | 0.1 | 0.6 | inhibition (INH) [17]: Dose-Dependent Effect; inhibition at 72 h, 0.5 µM (P-gp (ABCB1) [18]): 91%; inhibition at 72 h, 0.125 µM (P-gp (ABCB1) [19]): 9%; inhibition at 72 h, 1 µM (P-gp (ABCB1) [20]): 92%; inhibition at 72 h, 0.25 µM (P-gp (ABCB1) [21]): 65%
10 | COc1ccc(N2CC(=O)Nc3c(C#N)c4n(c3C2=O)CCC4)cc1 | 1.52 | 6280 | 200 | 2830 | 9570 | 3.38 | 47.9 |  |  |  |  |  |  |  |  |  |  |  |  | 
11 | COc1ccc(NC(=O)c2c3nc[nH]c(=O)c3c3n2CCC3)cc1 | 0.1 | 15600 | 140 | 1430 | 1530 | 1.07 | 10.9 |  |  |  |  |  |  |  |  |  |  |  |  | 
12 | Cc1nc2c(C#N)c3n(c2c(=O)n1-c1ccccc1)CCCC3 | 152 | 50 | 880 | 1790 | 7580 | 4.23 | 8.61 |  |  |  |  |  |  |  |  |  |  |  |  | 
13 | COc1ccc(-n2c(C)nc3c(C#N)c4n(c3c2=O)CCC4)cc1 | 247 | 70 | 160 | 80 | 17300 | 216 | 108 | >100 | 7580 | 2.4 | 37.214 | >100 | 5.646 | 30500 | 2.952 | 11.363 | 0.2 | 0.3 | 0.19 | 
14 | N#Cc1c2n(c3c(=O)n(-c4ccc(F)cc4)c(=O)[nH]c13)CCC2 | 0.33 | 730 | 4380 | 880 | 240 | 0.27 | 0.05 |  |  |  |  |  |  |  |  |  |  |  |  | 
15 | Cc1nc2c(C#N)c3n(c2c(=O)n1-c1ccc(Br)cc1)CCCC3 | 23.2 | 160 | 10800 | 1650 | 3710 | 2.25 | 0.35 |  |  |  |  |  |  |  |  |  |  |  |  | 
16 | COc1ccc(-n2cnc3c(C#N)c4n(c3c2=O)CCC4)cc1 | 15.1 | 1360 | 11000 | 2610 | 20600 | 7.88 | 1.88 |  |  |  |  |  |  |  |  |  |  |  |  | 
